# Experimental data published in patent US12391737B2, “Soluble NPY2 receptor agonists” (Boehringer Ingelheim International GmbH, priority 2020, dated 2025).
# Assays:
# [1] = target: T1, Human Neuropeptide Y2 Receptor (Homo sapiens, UniProt P49146); assay: Radioligand binding competition assay (RLB); conditions: Table 3, 125I-PYY(1-36) competition; read-out: Ki
# T1 construct: purchased CHEMICON HTS066M
# T1 sequence (P49146 1-381): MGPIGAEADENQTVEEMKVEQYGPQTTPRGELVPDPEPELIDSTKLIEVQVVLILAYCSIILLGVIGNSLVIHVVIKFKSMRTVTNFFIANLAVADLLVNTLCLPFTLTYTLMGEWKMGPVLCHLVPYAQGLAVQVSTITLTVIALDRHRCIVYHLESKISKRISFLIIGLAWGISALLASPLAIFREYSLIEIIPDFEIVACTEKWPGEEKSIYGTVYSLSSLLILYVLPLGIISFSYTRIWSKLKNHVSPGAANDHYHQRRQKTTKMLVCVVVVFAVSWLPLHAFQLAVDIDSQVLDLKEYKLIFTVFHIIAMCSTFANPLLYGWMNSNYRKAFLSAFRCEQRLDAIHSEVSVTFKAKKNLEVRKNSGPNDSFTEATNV
# In short: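 Receptor membranes, 0.5 μg/well; buffer 50 mM HEPES/5 mM MgCl2/1 mM CaCl2/0.2% ovalbumin, pH 7.4; 2 h RT, shaking. GF/C filtration, cold HEPES/500 mM NaCl wash, scintillation count. IC50 by nonlinear regression.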
# [2] = target: T2, human NPY5 receptor (hY5R) (Homo sapiens, UniProt Q15761); assay: HTRF cAMP Gi assay, hY5R
# T2 sequence (Q15761 1-445): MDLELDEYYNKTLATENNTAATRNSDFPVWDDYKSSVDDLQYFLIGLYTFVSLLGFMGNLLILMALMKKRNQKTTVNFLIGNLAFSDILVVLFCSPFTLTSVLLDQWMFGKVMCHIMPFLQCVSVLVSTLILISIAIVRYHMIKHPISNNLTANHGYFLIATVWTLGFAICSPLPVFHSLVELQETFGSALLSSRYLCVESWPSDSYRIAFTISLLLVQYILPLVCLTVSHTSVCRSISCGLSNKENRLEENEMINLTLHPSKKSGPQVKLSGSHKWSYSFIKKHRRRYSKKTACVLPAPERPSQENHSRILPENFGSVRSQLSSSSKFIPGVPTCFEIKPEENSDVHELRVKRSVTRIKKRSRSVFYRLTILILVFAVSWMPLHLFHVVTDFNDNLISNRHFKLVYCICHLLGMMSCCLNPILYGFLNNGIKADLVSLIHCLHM
# Solubility determination = conditions: for Sol6: pH 6; for Sol7: pH 7
# In short: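 Solubility is derived from the ratio of reversed-phase peak areas, filtered sample over a control dissolved at 1 mg/ml in 50% acetonitrile. Peptides are agitated for 2 hours at room temperature in 0.1 M sodium diphosphate at pH 6.4 or 7.0, aiming at 10 mg/ml.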
Structure (SMILES),Ki [1] [nM],EC50 [2] [nM],Sol6 (Solubility determination) [mg/mL],Sol7 (Solubility determination) [mg/mL]
"CC(C)CC(=O)N[C@@H](C)C(=O)N1CCC[C@H]1C(=O)N[C@@H](CCC(=O)O)C(=O)N[C@@H](CCCCNC(=O)CCCCCNC(=O)CC[C@H](NC(=O)CCCCCCCCCCCCCCCCC(=O)O)C(=O)O)C(=O)N1CCC[C@H]1C(=O)N[C@@H](CCC(=O)O)C(=O)N[C@@H](CCC(=O)O)C(=O)N[C@@H](CCC(=O)O)C(=O)N[C@@H](C)C(=O)N[C@@H](CO)C(=O)N1CCC[C@H]1C(=O)N[C@@H](CCC(=O)O)C(=O)N[C@@H](CCC(=O)O)C(=O)N[C@@H](CC(C)C)C(=O)N[C@@H](CCC(N)=O)C(=O)N[C@@H](CCCNC(=N)N)C(=O)N[C@@H](Cc1ccc(O)cc1)C(=O)N[C@@H](Cc1ccc(O)cc1)C(=O)N[C@H](C(=O)N[C@@H](CO)C(=O)N[C@@H](CC(C)C)C(=O)N[C@@H](CCCNC(=N)N)C(=O)N[C@@H](Cc1c[nH]cn1)C(=O)N[C@@H](Cc1ccc(O)cc1)C(=O)N[C@@H](Cc1ccc(O)cc1)C(=O)N[C@@H](CC(N)=O)C(=O)N[C@@H](Cc1c[nH]c2ccccc12)C(=O)N[C@@H](CC(C)C)C(=O)N[C@H](C(=O)N[C@@H](CCCNC(=N)N)C(=O)N[C@@H](CCC(N)=O)C(=O)N[C@@H](CCCNC(=N)N)C(=O)N[C@@H](Cc1ccc(O)cc1)C(N)=O)[C@@H](C)O)C(C)C [Compound 23, N{alpha-4}-(3-methylbutanoyl)-N{epsilon-7}-(6-[(4S)-4-carboxy-4-(17-carboxyheptadecanamido)butanamido]hexanoyl)[4A,7K,9E,11E,18Q,22V,28Y,30W,31L]-hPYY(4-36)]",12.6,> 5000,9.8,10.0
"CC[C@H](C)[C@H](NC(=O)[C@H](CCC(=O)O)NC(=O)[C@H](CCC(=O)O)NC(=O)[C@@H]1CCCN1C(=O)[C@H](CO)NC(=O)[C@H](C)NC(=O)[C@H](CC(=O)O)NC(=O)[C@H](CCC(=O)O)NC(=O)[C@H](CCC(=O)O)NC(=O)[C@@H]1CCCN1C(=O)[C@H](CCCCNC(=O)CCCCCNC(=O)CC[C@H](NC(=O)CCCCCCCCCCCCCCCCC(=O)O)C(=O)O)NC(=O)[C@H](CCC(=O)O)NC(=O)[C@@H]1CCCN1C(=O)[C@H](C)NC(=O)CC(C)C)C(=O)N[C@@H](CCC(N)=O)C(=O)N[C@@H](CCCNC(=N)N)C(=O)N[C@@H](Cc1ccc(O)cc1)C(=O)N[C@@H](Cc1ccc(O)cc1)C(=O)N[C@H](C(=O)N[C@@H](CCC(=O)O)C(=O)N[C@@H](CC(C)C)C(=O)N[C@@H](CCCNC(=N)N)C(=O)N[C@@H](Cc1c[nH]cn1)C(=O)N[C@@H](Cc1ccc(O)cc1)C(=O)N[C@@H](Cc1ccc(O)cc1)C(=O)N[C@@H](CC(N)=O)C(=O)N[C@@H](Cc1c[nH]c2ccccc12)C(=O)N[C@@H](CC(C)C)C(=O)N[C@H](C(=O)N[C@@H](CCCNC(=N)N)C(=O)N[C@@H](CCC(N)=O)C(=O)N[C@@H](CCCNC(=N)N)C(=O)N[C@@H](Cc1ccc(O)cc1)C(N)=O)[C@@H](C)O)C(C)C [Compound 52, N{alpha-4}-(3-methylbutanoyl)-N{epsilon-7}-(6-[(4S)-4-carboxy-4-(17-carboxyheptadecanamido)butanamido]hexanoyl)-[4A,7K,9E,17I,18Q,22V,23E,28Y,30W,31L]-hPYY(4-36)]",2.39,> 5000,9.5,9.5
"CC(C)CC(=O)N[C@@H](C)C(=O)N1CCC[C@H]1C(=O)N[C@@H](CCC(=O)O)C(=O)N[C@@H](CCCCNC(=O)CCCCCNC(=O)CC[C@H](NC(=O)CCCCCCCCCCCCCCCCC(=O)O)C(=O)O)C(=O)N1CCC[C@H]1C(=O)N[C@@H](CCC(=O)O)C(=O)N[C@@H](CCC(=O)O)C(=O)N[C@@H](CC(=O)O)C(=O)N[C@@H](C)C(=O)N[C@H](C(=O)N1CCC[C@H]1C(=O)N[C@@H](CCC(=O)O)C(=O)N[C@@H](CCC(=O)O)C(=O)N[C@@H](CC(C)C)C(=O)N[C@@H](CCC(N)=O)C(=O)N[C@@H](CCCCN)C(=O)N[C@@H](Cc1ccc(O)cc1)C(=O)N[C@@H](Cc1ccc(O)cc1)C(=O)N[C@H](C(=O)N[C@@H](CO)C(=O)N[C@@H](CC(C)C)C(=O)N[C@@H](CCCNC(=N)N)C(=O)N[C@@H](Cc1c[nH]cn1)C(=O)N[C@@H](Cc1ccc(O)cc1)C(=O)N[C@@H](Cc1ccc(O)cc1)C(=O)N[C@@H](CC(N)=O)C(=O)N[C@@H](Cc1c[nH]c2ccccc12)C(=O)N[C@@H](CC(C)C)C(=O)N[C@H](C(=O)N[C@@H](CCCNC(=N)N)C(=O)N[C@@H](CCC(N)=O)C(=O)N[C@@H](CCCNC(=N)N)C(=O)N[C@@H](Cc1ccc(O)cc1)C(N)=O)[C@@H](C)O)C(C)C)[C@@H](C)O [Compound 16, N{alpha-4}-(3-methylbutanoyl)-N{epsilon-7}-(6-[(4S)-4-carboxy-4-(17-carboxyheptadecanamido)butanamido]hexanoyl)[4A,7K,9E,13T,18Q,19K,22V,28Y,30W,31L]-hPYY(4-36)]",2.81,> 5000,10.0,8.3
"CC(C)CC(=O)N[C@@H](C)C(=O)N1CCC[C@H]1C(=O)N[C@@H](C)C(=O)N[C@@H](CCCCNC(=O)CCCCCNC(=O)CC[C@H](NC(=O)CCCCCCCCCCCCCCCCC(=O)O)C(=O)O)C(=O)N1CCC[C@H]1C(=O)N[C@@H](CCC(=O)O)C(=O)N[C@@H](CCC(=O)O)C(=O)N[C@@H](CC(=O)O)C(=O)N[C@@H](C)C(=O)N[C@@H](CO)C(=O)N1CCC[C@H]1C(=O)N[C@@H](CCC(=O)O)C(=O)N[C@@H](CCC(=O)O)C(=O)N[C@@H](CC(C)C)C(=O)N[C@@H](CCC(N)=O)C(=O)N[C@@H](CCCNC(=N)N)C(=O)N[C@@H](Cc1ccc(O)cc1)C(=O)N[C@@H](Cc1ccc(O)cc1)C(=O)N[C@H](C(=O)N[C@@H](CO)C(=O)N[C@@H](CC(C)C)C(=O)N[C@@H](CCCNC(=N)N)C(=O)N[C@@H](Cc1c[nH]cn1)C(=O)N[C@@H](Cc1ccc(O)cc1)C(=O)N[C@@H](Cc1ccc(O)cc1)C(=O)N[C@@H](CC(N)=O)C(=O)N[C@@H](Cc1c[nH]c2ccccc12)C(=O)N[C@@H](CC(C)C)C(=O)N[C@H](C(=O)N[C@@H](CCCNC(=N)N)C(=O)N[C@@H](CCC(N)=O)C(=O)N[C@@H](CCCNC(=N)N)C(=O)N[C@@H](Cc1ccc(O)cc1)C(N)=O)[C@@H](C)O)C(C)C [Compound 145, N{alpha-4}-(3-methylbutanoyl)-N{epsilon-7}-(6-[(4S)-4-carboxy-4-(17-carboxyheptadecanamido)butanamido]hexanoyl)-[4A,6A,7K,9E,18Q,22V,28Y,30W,31L]-hPYY(4-36)]",5.29,> 5000,7.2,9.0
